Results: patent US20120251496A1, “EZATIOSTAT FOR TREATING MULTIPLE MYELOMA” (Telik, Inc., priority 2011, published 2012)

Assays:
U266B1 = assay: multiple myeloma cell proliferation, U266B1; assay type: cell-based; conditions: U266B1, Human multiple myeloma
Description: (§1) The effect that ezatiostat has on multiple myeloma proliferation is tabulated below (Table 1).

RPMI-8226 = assay: multiple myeloma cell proliferation, RPMI-8226; assay type: cell-based; conditions: RPMI-8226, Human multiple myeloma
Description: as §1

ARH77 = assay: multiple myeloma cell proliferation, ARH77; assay type: cell-based; conditions: ARH-77, ARH77, Human multiple myeloma
Description: as §1

[1] = test system: human RPMI8226 multiple myeloma cell; assay: combination with melphalan, inhibition of multiple myeloma cell proliferation; assay type: cell-based; conditions: added together with melphalan; RPMI8226 cells; FIG. 1
[2] = test system: relapsed/refractory myeloma patients; conditions: thalidomide alone; cited from earlier work

| IC50 (U266B1) | IC50 (RPMI-8226) | IC50 (ARH77) | Compound | synergy with melphalan in inhibiting cell proliferation [1] | partial response rates [2] |
| --- | --- | --- | --- | --- | --- |
| 0.86 µM | 33 µM | 2.23 µM | CCOC(=O)[C@@H](N)CCC(=O)N[C@@H](CSCc1ccccc1)C(=O)N[C@@H](C(=O)OCC)c1ccccc1 [ezatiostat] | demonstrated synergy with melphalan | – |
| – | – | – | O=C1CCC(N2C(=O)c3ccccc3C2=O)C(=O)N1 (centres unmarked) [Thalidomide, thalidomide] | – | about 30 % of patients |
